Measured values from article PMC9652372, “Glycolytic flux control by drugging phosphoglycolate phosphatase” (Nature Communications, 2022).
In brackets after ≈: the same amount, converted by molar mass. Several values for one entry are separate records, joined by “and”; a condition that tells them apart may be missing. Equal values may be shown once.

Tests used:
PGP = biological target: T1, PGP (Mus musculus, UniProt Q8CHP8); assay: Steady state kinetics of PG dephosphorylation in presence of CP1-3
T1 sequence (Q8CHP8 1-321): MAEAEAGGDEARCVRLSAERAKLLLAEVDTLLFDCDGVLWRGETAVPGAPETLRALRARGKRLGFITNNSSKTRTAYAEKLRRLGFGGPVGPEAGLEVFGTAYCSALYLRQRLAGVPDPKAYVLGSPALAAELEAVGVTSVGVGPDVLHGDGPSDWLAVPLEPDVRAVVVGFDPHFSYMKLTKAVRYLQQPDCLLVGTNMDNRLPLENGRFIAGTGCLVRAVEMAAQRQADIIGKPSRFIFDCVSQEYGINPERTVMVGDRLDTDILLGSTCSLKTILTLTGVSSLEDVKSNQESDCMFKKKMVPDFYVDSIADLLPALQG

PGP^WT = biological target: T2, PGP^WT (Mus musculus, UniProt Q8CHP8); assay: Differential scanning fluorimetry (Thermofluor); type: binding
T2 construct: His6 (N, cleaved yes); made in house; host or cells: Escherichia coli BL21 (DE3), pETM11, co-expressed with groES-groEL-tig
T2 sequence (Q8CHP8 1-321): T1 sequence (Q8CHP8 1-321)

physchem = details: organic solvent or mixture
[1] = PG dephosphorylation, increasing CP concentrations

O=C(Nc1ccccc1C(=O)O)c1ccc(Oc2ccc(C(=O)Nc3ccccc3C(=O)O)cc2)cc1 [CP1]
PGP activity (PGP; 0,5 µM CP1, PG 600 µM): 17.6642 µmol Pi/min/mg and 17.3037 µmol Pi/min/mg and 17.4839 µmol Pi/min/mg | PGP activity (PGP; 0,5 µM CP1, PG 700 µM): 19.4667 µmol Pi/min/mg and 20.1876 µmol Pi/min/mg and 19.2864 µmol Pi/min/mg | PGP activity (PGP; 0,5 µM CP1, PG 800 µM): 18.0247 µmol Pi/min/mg and 18.9259 µmol Pi/min/mg and 20.0074 µmol Pi/min/mg | PGP activity (PGP; 1 µM CP1, PG 50 µM): 1.382 µmol Pi/min/mg and 0.901 µmol Pi/min/mg and 0.7809 µmol Pi/min/mg | PGP activity (PGP; 1 µM CP1, PG 100 µM): 2.763 µmol Pi/min/mg and 2.222 µmol Pi/min/mg and 2.403 µmol Pi/min/mg | PGP activity (PGP; 1 µM CP1, PG 200 µM): 4.805 µmol Pi/min/mg and 4.745 µmol Pi/min/mg and 4.625 µmol Pi/min/mg | PGP activity (PGP; 1 µM CP1, PG 300 µM): 7.751 µmol Pi/min/mg and 7.57 µmol Pi/min/mg and 7.39 µmol Pi/min/mg | PGP activity (PGP; 1 µM CP1, PG 400 µM): 9.373 µmol Pi/min/mg and 8.4716 µmol Pi/min/mg and 9.012 µmol Pi/min/mg | PGP activity (PGP; 1 µM CP1, PG 500 µM): 11.1753 µmol Pi/min/mg and 10.6346 µmol Pi/min/mg and 10.9951 µmol Pi/min/mg | PGP activity (PGP; 1 µM CP1, PG 600 µM): 12.437 µmol Pi/min/mg and 11.8963 µmol Pi/min/mg and 13.158 µmol Pi/min/mg | PGP activity (PGP; 1 µM CP1, PG 700 µM): 13.879 µmol Pi/min/mg and 12.7975 µmol Pi/min/mg | PGP activity (PGP; 1 µM CP1, PG 800 µM): 14.0592 µmol Pi/min/mg and 13.6988 µmol Pi/min/mg and 12.9778 µmol Pi/min/mg | PGP activity (PGP; 2 µM CP1, PG 50 µM): 0.6007 µmol Pi/min/mg and 1.021 µmol Pi/min/mg and 0.5406 µmol Pi/min/mg | PGP activity (PGP; 2 µM CP1, PG 100 µM): 1.562 µmol Pi/min/mg and 1.862 µmol Pi/min/mg and 1.201 µmol Pi/min/mg | PGP activity (PGP; 2 µM CP1, PG 200 µM): 2.703 µmol Pi/min/mg and 2.643 µmol Pi/min/mg | PGP activity (PGP; 2 µM CP1, PG 300 µM): 4.867 µmol Pi/min/mg and 5.227 µmol Pi/min/mg and 5.588 µmol Pi/min/mg | PGP activity (PGP; 2 µM CP1, PG 400 µM): 6.309 µmol Pi/min/mg and 6.128 µmol Pi/min/mg and 5.948 µmol Pi/min/mg | PGP activity (PGP; 2 µM CP1, PG 500 µM): 7.57 µmol Pi/min/mg and 7.03 µmol Pi/min/mg and 7.21 µmol Pi/min/mg | PGP activity (PGP; 2 µM CP1, PG 600 µM): 7.751 µmol Pi/min/mg and 7.931 µmol Pi/min/mg | PGP activity (PGP; 2 µM CP1, PG 700 µM): 7.57 µmol Pi/min/mg and 9.012 µmol Pi/min/mg and 8.291 µmol Pi/min/mg | PGP activity (PGP; 2 µM CP1, PG 800 µM): 6.849 µmol Pi/min/mg and 8.4716 µmol Pi/min/mg and 8.291 µmol Pi/min/mg | vmax (PGP; CP 0.5 µM): 39.9 ± 2.9 µmol/min/mg | vmax (PGP; CP 1.0 µM): 33.6 ± 3.0 µmol/min/mg | vmax (PGP; CP 2.0 µM): 17.1 ± 2.1 µmol/min/mg | effect on vmax (reduction) (PGP; [1]): ~ 3 fold | increase of KM (PGP; [1]): ~ 3 fold | TM (PGP^WT; Inhibitor 0.244141 µM): 66.6 °C | TM (PGP^WT; Inhibitor 0.488281 µM): 66.6 °C | TM (PGP^WT; Inhibitor 0.976562 µM): 66.8 °C | TM (PGP^WT; Inhibitor 1.95312 µM): 67.0 °C | TM (PGP^WT; Inhibitor 3.90625 µM): 67.7 °C | TM (PGP^WT; Inhibitor 7.8125 µM): 68.6 °C | TM (PGP^WT; Inhibitor 15.625 µM): 69.6 °C | TM (PGP^WT; Inhibitor 31.25 µM): 70.5 °C | TM (PGP^WT; Inhibitor 62.5 µM): 71.0 °C | TM (PGP^WT; Inhibitor 125 µM): 71.0 °C | TM (PGP^WT; Inhibitor 250 µM): 70.1 °C | increase in the maximal PGP melting temperature (PGP^WT; from 66.4 °C (control conditions)): 4.6 ° | solubility (physchem): 100 mM (≈ 49.6 mg/mL)
